Earlier results, collected in patent US6348502B1, “Formulations for the treatment of gastro-oesophageal reflux” (Reckitt & Colman Products Limited, priority 1998, dated 2002).

Legend:
[1] = tested on: capsaicin-sensitive neurones; conditions: rats; stimulation of capsaicin-sensitive neurones
[2] = tested on: acetic-acid induced gastric ulcers
gastric acid secretion = conditions: rats
[3] = tested on: topical injury by noxious agents such as ethanol; conditions: white rabbits, administered at the gastro-oesophageal junction via cannulae

Compound: COc1cc(CNC(=O)CCCC/C=C/C(C)C)ccc1O [capsaicin, (E)-(N)-[(4-hydroxy-3-methoxphenyl)-methyl]-8-methyl-6-nonenamide]
- duodenal bicarbonate secretion [1]: increase duodenal bicarbonate secretion
- protection of the gastric mucosa against experimental injury ([2]; acetic-acid induced gastric ulceration in rats): protects the gastric mucosa against experimental injury
- healing of acetic-acid induced gastric ulcers ([2]; rats, introduced directly into an ex vivo chamber): promotes the healing
- healing of acetic-acid induced gastric ulcers after prior administration of cimetidine ([2]; rats, prior administration of cimetidine): blunted
- effect on gastric acid secretion (gastric acid secretion): no effect
- mucosal protection against topical injury [3]: provides mucosal protection
